In ChEMBL document CHEMBL4024754, “Development of Potent, Protease-Resistant Agonists of the Parathyroid Hormone Receptor with Broad β Residue Distribution” (J Med Chem, 2017):
Numbered stars: 1 amine (or outer) side, 2 acyl side, 3 side chain; on linkers, the order of the positions; unused ones are H or OH. Square brackets hold non-standard residues; d marks the D form. Peptide text beside a SMILES is read from it. * marks the point of attachment. NH(1S,2S-2-CONH2-cPent) = NC(=O)[C@H]1CCC[C@@H]1N*; ACPC(1S,2S) = N[C@H]1CCC[C@@H]1C(=O)*; X1 = O=C([C@H]1CCC[C@@H]1N[*:1])[*:2]; X2 = O=C([C@H]1CNC[C@@H]1N[*:1])[*:2]; Aib = CC(C)(N)C(=O)O

Target: T1, Parathyroid hormone/parathyroid hormone-related peptide receptor (Homo sapiens) (UniProt Q03431)
T1 sequence (whole entry): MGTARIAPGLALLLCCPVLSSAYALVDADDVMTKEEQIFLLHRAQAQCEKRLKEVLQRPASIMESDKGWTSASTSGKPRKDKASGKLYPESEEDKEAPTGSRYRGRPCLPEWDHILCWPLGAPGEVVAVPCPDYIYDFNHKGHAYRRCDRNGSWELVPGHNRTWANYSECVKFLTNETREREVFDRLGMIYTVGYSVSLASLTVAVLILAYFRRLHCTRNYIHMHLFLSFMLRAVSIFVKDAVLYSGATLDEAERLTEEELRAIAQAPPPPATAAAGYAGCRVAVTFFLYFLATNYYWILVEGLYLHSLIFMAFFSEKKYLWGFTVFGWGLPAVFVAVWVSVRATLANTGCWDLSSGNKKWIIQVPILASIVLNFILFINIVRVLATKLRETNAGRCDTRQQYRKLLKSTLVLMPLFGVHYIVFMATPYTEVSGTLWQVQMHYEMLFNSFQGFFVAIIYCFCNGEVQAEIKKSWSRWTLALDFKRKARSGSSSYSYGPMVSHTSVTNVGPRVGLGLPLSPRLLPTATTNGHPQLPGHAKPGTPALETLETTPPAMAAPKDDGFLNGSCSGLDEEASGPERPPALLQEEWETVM
Assay: Agonist activity at human PTH1 receptor expressed in human GP2.3 cells assessed as induction of cAMP after 12 to 20 mins by luciferase reporter gene assay relative to PTH(1 to 34 residues)-NH2
Format: functional, cell-based

| fold change (FC) | Structure (SMILES) |
| --- | --- |
| 60.4 | CC[C@H](C)[C@H](NC(=O)C[C@H](CO)NC(=O)[C@H](CCCCN)NC(=O)CNC(=O)[C@H](CCCCN)NC(=O)[C@H](CC(=O)O)NC(=O)[C@H](Cc1cnc[nH]1)NC(=O)[C@H](CC(C)C)NC(=O)[C@H](CC(C)C)NC(=O)[C@H](CCC(N)=O)NC(=O)[C@H](Cc1cnc[nH]1)NC(=O)[C@H](CCC(=O)O)NC(=O)[C@H](CO)NC(=O)[C@@H](NC(=O)[C@H](C)N)C(C)C)C(=O)N[C@@H](CCC(N)=O)C(=O)N[C@@H](CC(=O)O)C(=O)N[C@H](CC(=O)N[C@@H](CCCNC(=N)N)C(=O)N[C@@H](CCCNC(=N)N)C(=O)N[C@@H](CCCNC(=N)N)C(=O)N[C@@H](CCC(=O)O)CC(=O)N[C@@H](CC(C)C)C(=O)N[C@@H](CC(C)C)C(=O)N[C@@H](CCC(=O)O)C(=O)N[C@@H](CCCCN)CC(=O)N[C@@H](CC(C)C)C(=O)N[C@@H](CC(C)C)C(=O)NC(C)(C)C(=O)N[C@@H](CCCCN)CC(=O)N[C@@H](CC(C)C)C(=O)N[C@@H](Cc1cnc[nH]1)C(=O)N[C@H](C(=O)N[C@@H](C)CC(N)=O)[C@@H](C)O)CC(C)C |
| 2.6 | CC[C@H](C)[C@H](NC(=O)[C@H]1CCC[C@@H]1NC(=O)[C@H](CCCCN)NC(=O)CNC(=O)[C@H](CCCCN)NC(=O)[C@H](CC(=O)O)NC(=O)[C@H](Cc1cnc[nH]1)NC(=O)[C@H](CC(C)C)NC(=O)[C@H](CC(C)C)NC(=O)[C@H](CCC(N)=O)NC(=O)[C@H](Cc1cnc[nH]1)NC(=O)[C@H](CCC(=O)O)NC(=O)[C@H](CO)NC(=O)[C@@H](NC(=O)[C@H](C)N)C(C)C)C(=O)N[C@@H](CCC(N)=O)C(=O)N[C@@H](CC(=O)O)C(=O)N[C@H]1CCC[C@@H]1C(=O)N[C@@H](CCCNC(=N)N)C(=O)N[C@@H](CCCNC(=N)N)C(=O)N[C@@H](CCCNC(=N)N)C(=O)N[C@H]1CNC[C@@H]1C(=O)N[C@@H](CC(C)C)C(=O)N[C@@H](CC(C)C)C(=O)N[C@@H](CCC(=O)O)C(=O)N[C@H]1CNC[C@@H]1C(=O)N[C@@H](CC(C)C)C(=O)N[C@@H](CC(C)C)C(=O)NC(C)(C)C(=O)N[C@H]1CCC[C@@H]1C(=O)N[C@@H](CC(C)C)C(=O)N[C@@H](Cc1cnc[nH]1)C(=O)N[C@H](C(=O)N[C@H]1CCC[C@@H]1C(N)=O)[C@@H](C)O (H-AVSEHQLLHDKGK[X1]IQD[X1]RRR[X2]LLE[X2]LL[Aib][X1]LHT-{NH(1S,2S-2-CONH2-cPent)}) |
| 234 | CSCC[C@H](NC(=O)[C@H]1CCC[C@@H]1NC(=O)[C@H](CCC(N)=O)NC(=O)[C@H]1CCC[C@@H]1NC(=O)[C@H](CCC(=O)O)NC(=O)[C@H](CO)NC(=O)[C@@H](NC(=O)[C@H]1CCC[C@@H]1N)C(C)C)C(=O)N[C@@H](Cc1cnc[nH]1)C(=O)N[C@@H](CC(N)=O)C(=O)N[C@@H](CC(C)C)C(=O)NCC(=O)N[C@@H](CCCCN)C(=O)N[C@H]1CCC[C@@H]1C(=O)N[C@@H](CC(C)C)C(=O)N[C@@H](CC(N)=O)C(=O)N[C@@H](CO)C(=O)N[C@H]1CCC[C@@H]1C(=O)N[C@@H](CCC(=O)O)C(=O)N[C@@H](CCCNC(=N)N)C(=O)N[C@H](C(=O)N[C@H]1CNC[C@@H]1C(=O)N[C@@H](Cc1c[nH]c2ccccc12)C(=O)N[C@@H](CC(C)C)C(=O)N[C@@H](CCCNC(=N)N)C(=O)N[C@H]1CNC[C@@H]1C(=O)N[C@@H](CCCCN)C(=O)N[C@@H](CC(C)C)C(=O)N[C@@H](CCC(N)=O)C(=O)N[C@H]1CCC[C@@H]1C(=O)N[C@H](C(=O)N[C@@H](Cc1cnc[nH]1)C(=O)N[C@@H](CC(N)=O)C(=O)N[C@H]1CCC[C@@H]1C(N)=O)C(C)C)C(C)C ({ACPC(1S,2S)}-VSE[X1]Q[X1]MHNLGK[X1]LNS[X1]ERV[X2]WLR[X2]KLQ[X1]VHN-{NH(1S,2S-2-CONH2-cPent)}) |
